Assay results from US4331606A, “N-(Substituted chromone-3-carbonyl)-phenylglycine derivatives” (Eisai Co., Ltd., priority 1980, dated 1982).
In brackets after ≈: the same amount, converted by molar mass.

What was measured:
Format in all cases: cell-based
[1] = tested on: Serratia marcescens ES-75; experiment: Antibacterial Activity (MIC) against Serratia marcescens ES-75; conditions: ES75
[2] = tested on: Klebsiella pneumoniae EK-6; experiment: Antibacterial Activity (MIC) against Klebsiella pneumoniae EK-6; conditions: EK6
Escherichia coli NIHJ = experiment: Antibacterial Activity (MIC) against Escherichia coli NIHJ
Proteus morganii EP-14 = experiment: Antibacterial Activity (MIC) against Proteus morganii EP-14; conditions: Morganella morganii, EP14
[3] = tested on: Pseudomonas aeruginosa EP-172; experiment: Antibacterial Activity (MIC) against Pseudomonas aeruginosa EP-172; conditions: EP172
[4] = tested on: Staphylococcus aureus 209-P; experiment: Antibacterial Activity (MIC) against Staphylococcus aureus 209-P

SMILES | MIC [1] | MIC [2] | MIC (Escherichia coli NIHJ) | MIC (Proteus morganii EP-14) | MIC [3] | MIC [4]
CCOC(=O)Oc1cc2occ(C(=O)N[C@@H](C(=O)N[C@@H]3C(=O)N4C(C(=O)O)=C(CSc5nnnn5CC(=O)O)CS[C@H]34)c3ccc(O)cc3)c(=O)c2cc1OC(=O)OCC [Preparatory Example 2 (A), 7β-[D-2-{6,7-bis(ethoxycarbonyloxy)chromone-3-carboxamido}-2-(4-hydroxyphenyl)acetamido]-3-[(1-carboxymethyl-5-tetrazolyl)thiomethyl]-3-cephem-4-carboxylic acid] | ≥ 0.05 µg/mL | ≥ 0.05 µg/mL | 0.4 µg/mL (≈ 0.46 µM) | 1.56 µg/mL (≈ 1.79 µM) | 0.8 µg/mL (≈ 0.92 µM) | 6.25 µg/mL (≈ 7.19 µM)
O=C(O)Cn1nnnc1SCC1=C(C(=O)O)N2C(=O)[C@@H](NC(=O)[C@H](NC(=O)c3coc4cc(O)c(O)cc4c3=O)c3ccc(O)cc3)[C@H]2SC1 [Preparatory Example 2 (B), 7β-[D-2-(6,7-Dihydroxychromone-3-carboxyamido)-2-(4-hydroxyphenyl)acetamido]-3-[(1-carboxymethyl-5-tetrazolyl)thiomethyl]-cephem-4-carboxylic acid] | ≥ 0.1 µg/mL | ≥ 0.1 µg/mL | 0.4 µg/mL (≈ 0.551 µM) | 12.5 µg/mL (≈ 17.2 µM) | 0.8 µg/mL (≈ 1.1 µM) | 3.13 µg/mL (≈ 4.31 µM)
